Measured values published in US6642391B2, “Amycomycin, a process for its production and its use as a pharmaceutical” (priority 1999, dated 2003).
≈ marks a conversion by molar mass, not a printed value. Where two headings read alike, the source gives them in different places.

Tests used:
E.faecalis O2D2DU18 = assay: MIC micro-dilutions test; type: cell-based; settings: Enterococcus faecalis
From the text: (§1) Lately, these strains have proven increasingly to be problem strains, i.e., those microorganisms that have become resistant to existing antibiotics. The superiority of the present compound in relation to other antibiotics is shown, for example, in the inhibition of vancomycin- and teicoplanin-resistant strains such as, for example, E. faecalis, E. faecium or E. gallinarium.

E.faecalis O2D2HM9 = assay: MIC micro-dilutions test; type: cell-based; settings: Enterococcus faecalis
From the text: as §1

E.faecalis O2D2HT10 = assay: MIC micro-dilutions test; type: cell-based; settings: Enterococcus faecalis
From the text: as §1

E.faecalis O2D2UC5 = assay: MIC micro-dilutions test; type: cell-based; settings: Enterococcus faecalis
From the text: as §1

E.faecium O2D3AP9 = assay: MIC micro-dilutions test; type: cell-based; settings: Enterococcus faecium
From the text: as §1

E.faecium O2D3HM3 = assay: MIC micro-dilutions test; type: cell-based; settings: Enterococcus faecium
From the text: as §1

E.faecium O2D3HT12 = assay: MIC micro-dilutions test; type: cell-based; settings: Enterococcus faecium
From the text: as §1

E.gallinarium O2D0HM8 = assay: MIC micro-dilutions test; type: cell-based; settings: read-out: Minimum Inhibition Concentration
From the text: as §1

P.aeruginosa 1771 391HT2 = assay: MIC micro-dilutions test; type: cell-based; settings: Pseudomonas aeruginosa, 1771391HT2, Gram-negative, read-out: Minimum Inhibition Concentration
From the text: as §1

[1] = system: P.aeruginosa 1771m 391HT3; assay: MIC micro-dilutions test; type: cell-based; settings: Pseudomonas aeruginosa, 1771M391HT3, read-out: Minimum Inhibition Concentration
From the text: as §1

S.aureus 011CB20 = assay: MIC micro-dilutions test; type: cell-based; settings: Staphylococcus aureus
From the text: as §1

S.aureus 011DU5 = assay: MIC micro-dilutions test; type: cell-based; settings: Staphylococcus aureus
From the text: as §1

S.aureus 011GO64 = assay: MIC micro-dilutions test; type: cell-based; settings: Staphylococcus aureus
From the text: as §1

S.aureus 011GO71 = assay: MIC micro-dilutions test; type: cell-based; settings: Staphylococcus aureus
From the text: as §1

S.aureus 011GR91 = assay: MIC micro-dilutions test; type: cell-based; settings: Staphylococcus aureus
From the text: as §1

S.aureus 011HT18 = assay: MIC micro-dilutions test; type: cell-based; settings: Staphylococcus aureus
From the text: as §1

S.aureus 011HT1 = assay: MIC micro-dilutions test; type: cell-based; settings: Staphylococcus aureus
From the text: as §1

S.aureus 011HT3 = assay: MIC micro-dilutions test; type: cell-based; settings: Staphylococcus aureus
From the text: as §1

S.epidermidis 012GO20 = assay: MIC micro-dilutions test; type: cell-based; settings: Staphylococcus epidermidis; S.epidermidis 012GO20, oxa S ery S tet R; Gram-positive; read-out: Minimum Inhibition Concentration
From the text: as §1

S.epidermidis 012GO42 = assay: MIC micro-dilutions test; type: cell-based; settings: Staphylococcus epidermidis; S.epidermidis 012GO42, oxa R; Gram-positive; read-out: Minimum Inhibition Concentration
From the text: as §1

S.mitis O2mitGR16 = assay: MIC micro-dilutions test; type: cell-based; settings: Streptococcus mitis
From the text: as §1

S.pneumoniae 030BI2 = assay: MIC micro-dilutions test; type: cell-based; settings: Streptococcus pneumoniae
From the text: as §1

S.pyogenes O2A1FI6 = assay: MIC micro-dilutions test; type: cell-based; settings: Streptococcus pyogenes
From the text: as §1

S.pyogenes O2A1SJ1 = assay: MIC micro-dilutions test; type: cell-based; settings: Streptococcus pyogenes
From the text: as §1

S.pyogenes O2A1UC1 = assay: MIC micro-dilutions test; type: cell-based; settings: Streptococcus pyogenes
From the text: as §1

[2] = system: Staph.coag.negative 012HT5; assay: MIC micro-dilutions test; type: cell-based; settings: read-out: Minimum Inhibition Concentration
From the text: as §1

Strepto gr.G O2G0CB2 = assay: MIC micro-dilutions test; type: cell-based; settings: read-out: Minimum Inhibition Concentration
From the text: as §1

[3] = Physical-chemical characteristics: solubility; type: physicochemical; settings: solvents: methanol, DMSO, pyridine
From the text: The physical-chemical as well as the spectroscopic characteristics of the compound Amycomycin according to the invention are as follows: […]

[4] = system: gram-positive bacteria such as Staphylo- and Enterococci; assay: Antibacterial activity; type: cell-based; settings: particularly against gram-positive bacteria such as Staphylo- and Enterococci
From the text: as §1

E.faecium O2D3IP2 = assay: MIC micro-dilutions test; type: cell-based; settings: Enterococcus faecium; E.faecium O2D3IP2, tei R van R ery R tet R; Gram-positive; read-out: Minimum Inhibition Concentration
From the text: as §1

S.milleri O2milGR12 = assay: MIC micro-dilutions test; type: cell-based; settings: S.milleri O2milGR12, ery S van S; Gram-positive; read-out: Minimum Inhibition Concentration
From the text: as §1

## C/C(=C\CC(O)CC(O)CCC(C)C(O)C(C)C(O)CCCC(O)C(C)C(O)/C(C)=C/C(C)C(=O)/C(C)=C/C(O)C(O)CC(O)CC(O)C(C)CCC(O)CC(O)CCC(C)C(O)C(C)C(O)C(C)C)C(=O)C1=C(O)/C(=C/C(C)C)N(C)C1=O (stereo not drawn) [Amycomycin]
E.faecalis O2D2DU18; E.faecalis O2D2DU18, tet R nov R, Gram-positive, read-out: Minimum Inhibition Concentration
  MIC: 1.2 µg/mL (≈ 1 µM)
E.faecalis O2D2HM9; E.faecalis O2D2HM9, nov R van B ery R tei S, Gram-positive, read-out: Minimum Inhibition Concentration
  MIC: 2.5 µg/mL (≈ 2.09 µM)
E.faecalis O2D2HT10; E.faecalis O2D2HT10, nov R van S tet R, Gram-positive, read-out: Minimum Inhibition Concentration
  MIC: 1.2 µg/mL (≈ 1 µM)
E.faecalis O2D2UC5; ATCC29212, E.faecalis O2D2UC5, ATCC 29212 nov R, Gram-positive, read-out: Minimum Inhibition Concentration
  MIC: 2.5 µg/mL (≈ 2.09 µM)
E.faecium O2D3AP9; E.faecium O2D3AP9, nov S van R ery S tei R, Gram-positive, read-out: Minimum Inhibition Concentration
  MIC: 0.6 µg/mL (≈ 0.501 µM)
E.faecium O2D3HM3; E.faecium O2D3HM3, nov S van A ery R tei R, Gram-positive, read-out: Minimum Inhibition Concentration
  MIC: 1.2 µg/mL (≈ 1 µM)
E.faecium O2D3HT12; E.faecium O2D3HT12, tei R van R ery R tet R, Gram-positive, read-out: Minimum Inhibition Concentration
  MIC: 0.6 µg/mL (≈ 0.501 µM)
E.gallinarium O2D0HM8; E.gallinarium O2D0HM8, van C tet R ery S, Gram-positive
  MIC: 1.2 µg/mL (≈ 1 µM)
P.aeruginosa 1771 391HT2
  MIC: > 40 µg/mL
[1]
  MIC: > 40 µg/mL
S.aureus 011CB20; S.aureus 011CB20, oxa R ery Rc tet R, Gram-positive, read-out: Minimum Inhibition Concentration
  MIC: 0.08 µg/mL (≈ 0.0667 µM)
S.aureus 011DU5; S.aureus 011DU5, nov R tet R, Gram-positive, read-out: Minimum Inhibition Concentration
  MIC: 0.08 µg/mL (≈ 0.0667 µM)
S.aureus 011GO64; S.aureus 011GO64, ofl R oxa R ery Rc tet R, Gram-positive, read-out: Minimum Inhibition Concentration
  MIC: 0.3 µg/mL (≈ 0.25 µM)
S.aureus 011GO71; S.aureus 011GO71, ofl S oxa R ery S tet R, Gram-positive, read-out: Minimum Inhibition Concentration
  MIC: 0.15 µg/mL (≈ 0.125 µM)
S.aureus 011GR91; S.aureus 011GR91, pri R oxa R ery R nov R, Gram-positive, read-out: Minimum Inhibition Concentration
  MIC: 1.2 µg/mL (≈ 1 µM)
S.aureus 011HT18; ATCC13709, S.aureus 011HT18, ATCC 13709 Smith, Gram-positive, read-out: Minimum Inhibition Concentration
  MIC: 0.08 µg/mL (≈ 0.0667 µM)
S.aureus 011HT1; S.aureus 011HT1, nov R, Gram-positive, read-out: Minimum Inhibition Concentration
  MIC: ≤ 0.04 µg/mL
S.aureus 011HT3; S.aureus 011HT3, oxa S ery S, Gram-positive, read-out: Minimum Inhibition Concentration
  MIC: 0.08 µg/mL (≈ 0.0667 µM)
S.epidermidis 012GO20
  MIC: 0.3 µg/mL (≈ 0.25 µM)
S.epidermidis 012GO42
  MIC: 0.3 µg/mL (≈ 0.25 µM)
S.mitis O2mitGR16; S.mitis O2mitGR16, ery Ri van S, Gram-positive, read-out: Minimum Inhibition Concentration
  MIC: 1.2 µg/mL (≈ 1 µM)
S.pneumoniae 030BI2; S.pneumoniae 030BI2, ery R, Gram-positive, read-out: Minimum Inhibition Concentration
  MIC: 0.15 µg/mL (≈ 0.125 µM)
S.pyogenes O2A1FI6; S.pyogenes O2A1FI6, ery R, Gram-positive, read-out: Minimum Inhibition Concentration
  MIC: 0.6 µg/mL (≈ 0.501 µM)
S.pyogenes O2A1SJ1; S.pyogenes O2A1SJ1, van S ery Rc, Gram-positive, read-out: Minimum Inhibition Concentration
  MIC: 0.3 µg/mL (≈ 0.25 µM)
S.pyogenes O2A1UC1; S.pyogenes O2A1UC1, van S ery S, Gram-positive, read-out: Minimum Inhibition Concentration
  MIC: 0.6 µg/mL (≈ 0.501 µM)
[2]; Staph.coag.negative 012HT5, ofl R oxa R tet R, Gram-positive
  MIC: 0.15 µg/mL (≈ 0.125 µM)
Strepto gr.G O2G0CB2; Strepto gr.G O2G0CB2, tet R rif R nov R, Gram-positive
  MIC: 0.6 µg/mL (≈ 0.501 µM)
[3]
  Solubility (Appearance): colorless solid, soluble in methanol, DMSO,
[4]
  antibacterial activity: extraordinary antibacterial activity

## CN[C@H](CC(C)C)C(=O)N[C@H]1C(=O)N[C@@H](CC(N)=O)C(=O)N[C@H]2C(=O)N[C@H]3C(=O)N[C@H](C(=O)N[C@H](C(=O)O)c4cc(O)cc(O)c4-c4cc3ccc4O)[C@H](O)c3ccc(c(Cl)c3)Oc3cc2cc(c3O[C@@H]2O[C@H](CO)[C@@H](O)[C@H](O)[C@H]2O[C@H]2C[C@](C)(N)[C@H](O)[C@H](C)O2)Oc2ccc(cc2Cl)[C@H]1O [Vancomycin, reference compound]
E.faecalis O2D2DU18; O2D2DU18, read-out: Minimum Inhibition Concentration
  MIC: 0.3 µg/mL (≈ 0.207 µM)
E.faecalis O2D2HM9; O2D2HM9, read-out: Minimum Inhibition Concentration
  MIC: > 40 µg/mL
E.faecalis O2D2HT10; O2D2HT10, read-out: Minimum Inhibition Concentration
  MIC: 0.6 µg/mL (≈ 0.414 µM)
E.faecalis O2D2UC5; ATCC29212, read-out: Minimum Inhibition Concentration
  MIC: 2.5 µg/mL (≈ 1.73 µM)
E.faecium O2D3AP9; O2D3AP9, read-out: Minimum Inhibition Concentration
  MIC: > 40 µg/mL
E.faecium O2D3HM3; O2D3HM3, read-out: Minimum Inhibition Concentration
  MIC: > 40 µg/mL
E.faecium O2D3HT12; O2D3HT12, read-out: Minimum Inhibition Concentration
  MIC: > 40 µg/mL
E.faecium O2D3IP2
  MIC: > 40 µg/mL
E.gallinarium O2D0HM8
  MIC: > 40 µg/mL
S.aureus 011CB20; 011CB20, read-out: Minimum Inhibition Concentration
  MIC: 0.15 µg/mL (≈ 0.104 µM)
S.aureus 011DU5; 011DU5, read-out: Minimum Inhibition Concentration
  MIC: 0.15 µg/mL (≈ 0.104 µM)
S.aureus 011GO64; 011GO64, read-out: Minimum Inhibition Concentration
  MIC: 1.2 µg/mL (≈ 0.828 µM)
S.aureus 011GO71; 011GO71, read-out: Minimum Inhibition Concentration
  MIC: 0.6 µg/mL (≈ 0.414 µM)
S.aureus 011GR91; 011GR91, read-out: Minimum Inhibition Concentration
  MIC: 1.2 µg/mL (≈ 0.828 µM)
S.aureus 011HT18; ATCC13709, read-out: Minimum Inhibition Concentration
  MIC: 0.3 µg/mL (≈ 0.207 µM)
S.aureus 011HT1; 011HT1, read-out: Minimum Inhibition Concentration
  MIC: 0.08 µg/mL (≈ 0.0552 µM)
S.aureus 011HT3; 011HT3, read-out: Minimum Inhibition Concentration
  MIC: 0.3 µg/mL (≈ 0.207 µM)
S.milleri O2milGR12
  MIC: 0.3 µg/mL (≈ 0.207 µM)
S.mitis O2mitGR16; O2MITGR16, read-out: Minimum Inhibition Concentration
  MIC: 0.3 µg/mL (≈ 0.207 µM)
S.pneumoniae 030BI2; 030BI2, read-out: Minimum Inhibition Concentration
  MIC: 0.15 µg/mL (≈ 0.104 µM)
S.pyogenes O2A1FI6; O2A1FI6, read-out: Minimum Inhibition Concentration
  MIC: 0.08 µg/mL (≈ 0.0552 µM)
S.pyogenes O2A1SJ1; O2A1SJ1, read-out: Minimum Inhibition Concentration
  MIC: 0.15 µg/mL (≈ 0.104 µM)
S.pyogenes O2A1UC1; O2A1UC1, read-out: Minimum Inhibition Concentration
  MIC: 0.15 µg/mL (≈ 0.104 µM)
[2]
  MIC: 0.6 µg/mL (≈ 0.414 µM)
Strepto gr.G O2G0CB2
  MIC: 0.15 µg/mL (≈ 0.104 µM)
